Results on 15 compounds are retold here after patent US20080306243A1, “Hla-Binding Peptide, and Dna Fragment and Recombinant Vector Coding for Said Hla-Binding Peptide” (NEC CORPORATION, priority 2005, published 2008).

Test [1] concerns the target T1, HLA-A0206 molecule (Homo sapiens, UniProt P04439, D140Y/D185E/D98H/E176V/E277Q/F33Y/G131W/G231S/I119V/I121R/I166T/I218V/L300P/L318F/N151K/N90K/P208A/P217A/Q86G/Q94H/R138H/R169H/T345S).
T1 construct: expressed in transfected cells; host or cells: RA2.6 cells (RAMS mouse TAP-deficient cells expressing HLA-A*0206 cDNA)
The test can be described thus: Experiment of binding peptide to HLA-A0206 molecule (RA2.6 cells, flow cytometry). The procedure: (§1) The ability of a peptide to bind to an HLA-A0206 molecule, which is a product of the HLA-A*0206 gene, was measured using RA2.6 cells (cell strain newly prepared in Kochi University), wherein cDNA of the HLA-A*0206 gene is expressed in RAMS cells, which are mouse peptide transporter TAP-deficient cells.
(§2) RA2.6 cells were first cultured overnight at 26° C., serial dilutions of peptide were added to HLA-A0206 molecules having no peptide bound thereto that were deposited on the cell surface, and binding was carried out at room temperature for 30 minutes.
(§3) Subsequently, culturing was carried out at 37° C. for 3.5 hours, empty HLA-A0206 molecules to which no peptide were bound was denatured, and the tertiary structure was lost.
(§4) The cells were stained by adding thereto fluorescently labeled monoclonal antibody 17A10 or 17A12, which specifically recognize the peptide-binding HLA-A0206 molecule, and incubating on ice for 20 minutes.
(§5) Subsequently, the amount of fluorescence per cell was measured using a flow cytometer, and a dissociation constant Kd value was calculated by a published method (Udaka et al., Immunogenetics, 51, 816-828, 2000).

Test [2] has as its target HLA-A0201 molecule (Homo sapiens, UniProt P04439, D140Y/D185E/D98H/E176V/E277Q/G131W/G231S/I119V/I121R/I166T/I218V/L300P/L318F/N151K/N90K/P208A/P217A/Q86G/Q94H/R138H/R169H/T345S). Kind of test: Experiment of binding peptide to HLA-A0201 molecule (JY cells, flow cytometry). The following applies: expressed as -log Kd value.
Test [3] deals with HLA-A2402 molecule (Homo sapiens, UniProt P04439, D101N/D140Y/D185E/E176V/E190D/F33S/G103R/G107R/I119L/I121M/I306V/K335N/L105A/L180Q/L300P/N151K/N90K/Q86E/Q94H/R106L/R138H/R89G/T104I/T345S/V100E/W191G/Y123F). Kind of test: Experiment of binding peptide to HLA-A2402 molecule (C1R-A24 cells, flow cytometry). The procedure: (§6) The ability of a peptide to bind to an HLA-A2402 molecule, which is a product of the HLA-A*2402 gene, was measured using C1R-A24 cells expressing the HLA-A*2402 gene (cells prepared by Professor Masafumi Takiguchi, Kumamoto University being supplied with permission by Assistant Professor Masaki Yasukawa, Ehime University).
(§7) C1R-A24 cells were first exposed to acidic conditions at a pH of 3.3 for 30 seconds, thus dissociating and removing a light chain β2m, which is associated with HLA class I molecules in common, and an endogenous peptide originally bound to the HLA-A2402 molecule. After neutralization, purified β2m was added to C1R-A24 cells, the obtained product was added to serial dilutions of a peptide, and incubated on ice for 4 hours. Staining was carried out using fluorescently labeled monoclonal antibody 17A12, which recognizes association (MHC-pep) of the three members, that is, HLA-A2402 molecule, the peptide, and β2m, which had reassociated during the incubation.
(§8) Subsequently, the MHC-pep count per C1R-A24 cell (proportional to the strength of fluorescence of the above-mentioned fluorescent antibody) was quantitatively measured using an FACScan fluorescence-activated cell sorter (Becton Dickinson Biosciences). A binding dissociation constant Kd value between the HLA-A24 molecule and the peptide was calculated from the average strength of fluorescence per cell by a published method (Udaka et al., Immunogenetics, 51, 816-828, 2000).

Test [4] deals with human HLA-A type molecule. The test can be described thus: Binding experiments summarised for HLA-A type molecules. The procedure:
as §6, §7, §8
The ability of a peptide to bind to an HLA-A0201 molecule, which is a product of the HLA-A*0201 gene, was measured using strain JY cells expressing the HLA-A*0201 (obtained from ATCC (American Type Culture Collection)).
JY cells were first exposed to acidic conditions at a pH of 3.8 for 30 seconds, thus dissociating and removing a light chain β2m and an endogenous peptide, which were noncovalently associated with the HLA-A0201 molecule. After neutralization, a reassociation experiment was carried out. The above-mentioned JY cells and the purified β2m were added to stepped serial dilutions of peptide for which the binding ability was to be measured, and incubation was carried out on ice for 4 hours. HLA-A0201 molecules that had reassociated up to this point were stained using the associating type specific fluorescently-labeled monoclonal antibody BB7.2.
Subsequently, the amount of fluorescence per cell was measured using a flow cytometer and a dissociation constant Kd value was calculated by a published method (Udaka et al., Immunogenetics, 51, 816-828, 2000).
as §1, §2, §3, §4, §5

[5] abbreviates: binding to HLA-A0206 molecule, RA2.6 cells, read-out: BINDING EXPERIMENT DATA (converted).
The mark [6] stands for this setting: binding to HLA-A2402 molecule, C1R-A24 cells, read-out: BINDING EXPERIMENT DATA (converted).

Like-named read-outs stand apart in the source and are kept apart here. Ends that are not written are not given here.

Consider DLPTQEPAL [compound 27], for which, in test [1] (setting [5]), the Kd was 5440 nM. Take `CC(C)C[C@H](NC(=O)[C@@H](NC(=O)CN)C(C)C)C(=O)N[C@H](C(=O)N[C@@H](Cc1c[nH]cn1)C(=O)N1CCC[C@H]1C(=O)N[C@@H](CCC(N)=O)C(=O)N[C@@H](Cc1c[nH]c2ccccc12)C(=O)N[C@H](C(=O)O)C(C)C)C(C)C` [compound 19]: the Kd in test [1] (setting [5]) is 525 nM. Take `CC(C)C[C@H](N)C(=O)N[C@H](C(=O)N[C@@H](C)C(=O)N[C@@H](CO)C(=O)N[C@@H](CCCNC(=N)N)C(=O)NCC(=O)N[C@@H](CCCNC(=N)N)C(=O)N[C@@H](C)C(=O)N[C@H](C(=O)O)C(C)C)C(C)C` [compound 22]: the Kd in test [1] (setting [5]) is 5580 nM. Regarding FHPEDTGQV [compound 13], the Kd in test [2] was 2960 nM. Take GVLQGITSW [compound 8]: in test [3] (setting [6]), the Kd was 4200 nM. The “binding to a human HLA-A type molecule” value in test [4] (result in words) was “experimentally confirmed to bind”. WVPVVFLTL [compound 2]: the Kd in test [3] (setting [6]) was 50.9 nM. For the same compound, the “binding to a human HLA-A type molecule” value in test [4] (result in words) was “experimentally confirmed to bind”. With WVPVVFLTL [compound 24], in test [1] (setting [5]), the Kd is 182 nM. ILSRIVGGW [compound 6]: the Kd in test [3] (setting [6]) is 62 nM. The “binding to a human HLA-A type molecule” value in test [4] (result in words) is “experimentally confirmed to bind”. Regarding QVFQVSHSF [compound 5], the Kd in test [3] (setting [6]) is 47.8 nM. Moreover, the “binding to a human HLA-A type molecule” value in test [4] (result in words) is recorded as “experimentally confirmed to bind”. As for WVLTAAHCI [compound 12], the Kd in test [3] was 23200 nM. The “binding to a human HLA-A type molecule” value in test [4] is listed as “experimentally confirmed to bind”.

Regarding ILLGRHSLF [compound 3], the Kd in test [3] (setting [6]) is 33.5 nM. Moreover, in test [4] (result in words), the “binding to a human HLA-A type molecule” value was “experimentally confirmed to bind”. Consider WVLTAAHCI [compound 20], for which the Kd in test [1] was 1130 nM. In the case of VHPQKVTKF [compound 7], the Kd in test [3] (setting [6]) is 223 nM. For the same compound, in test [4] (result in words), the “binding to a human HLA-A type molecule” value is on record as “experimentally confirmed to bind”. Consider DLPTQEPAL [compound 4], for which the Kd in test [3] (setting [6]) was 5870 nM. For the same compound, in test [4] (result in words), the “binding to a human HLA-A type molecule” value was “experimentally confirmed to bind”. `CC(C)C[C@H](NC(=O)[C@@H](NC(=O)[C@H](Cc1c[nH]c2ccccc12)NC(=O)[C@H](CCC(N)=O)NC(=O)[C@@H]1CCCN1C(=O)[C@H](Cc1c[nH]cn1)NC(=O)[C@@H](NC(=O)[C@H](CC(C)C)NC(=O)[C@@H](N)C(C)C)C(C)C)C(C)C)C(=O)O` [compound 9]: in test [3] (setting [6]), the Kd was 458 nM. In test [4] (result in words), the “binding to a human HLA-A type molecule” value is reported as “experimentally confirmed to bind”.
